Consider 19 molecules from US5780245A, “Polypeptides having a serotonin receptor activity, nucleic acids coding for these polypeptides and uses” (priority 1992, dated 1998).

One assay addresses whole (N) 5HT2C receptor (Mus musculus, UniProt Q02152). The assay is described as follows: biochemical. Type of assay: binding. Particulars: for order of efficacy of displacement / competition: displacement of [^125 I]DOI.
Assay [1] has as its target T1, truncated (T) 5HT2C receptor (Mus musculus, UniProt Q02152, S167T).
T1 sequence (Q02152 with tags, fused parts or gaps S167T): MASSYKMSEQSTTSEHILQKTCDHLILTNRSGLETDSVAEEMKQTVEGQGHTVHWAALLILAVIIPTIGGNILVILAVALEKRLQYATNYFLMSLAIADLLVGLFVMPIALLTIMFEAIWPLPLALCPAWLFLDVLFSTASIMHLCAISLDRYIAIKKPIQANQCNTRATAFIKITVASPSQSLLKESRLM
The assay can be described thus: biochemical. Type of assay: binding.

For a further assay, the target named is 5-HT2 (Homo sapiens, UniProt P28223). The assay can be described thus: binding to 5-HT2 (Table 1 comparison).
The next assay has as its target T2, 5-HT1C (Homo sapiens, UniProt P28335).
T2 sequence (P28335 33-458): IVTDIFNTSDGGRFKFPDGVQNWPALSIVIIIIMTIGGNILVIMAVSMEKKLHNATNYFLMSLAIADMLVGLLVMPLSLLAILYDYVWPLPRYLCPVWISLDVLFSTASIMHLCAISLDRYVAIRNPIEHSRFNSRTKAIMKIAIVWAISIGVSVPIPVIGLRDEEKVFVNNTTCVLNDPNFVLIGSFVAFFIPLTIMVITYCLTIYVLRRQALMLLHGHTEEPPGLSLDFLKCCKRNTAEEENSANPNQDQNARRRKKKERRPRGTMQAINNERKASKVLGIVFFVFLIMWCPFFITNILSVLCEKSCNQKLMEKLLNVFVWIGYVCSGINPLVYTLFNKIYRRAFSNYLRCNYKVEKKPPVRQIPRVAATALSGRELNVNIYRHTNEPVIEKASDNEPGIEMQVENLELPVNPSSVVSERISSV
The assay is described as follows: biochemical. Type of assay: binding.

For another assay, the system named is coronary arteries. The following applies: human coronary atherosclerosis; Golino et al.; cited from earlier work.
For the next assay, the target named is T3, 5HT2C receptor (Mus musculus, UniProt Q02152).
T3 construct: expressed in transfected cells; host or cells: Cos-7
The assay is described as follows: saturation binding of [^125 I]DOI to membranes of Cos-7 cells expressing the 5HT2C receptor. Here is the method: FIG. 1 Scatchard curve of the results of experiments for the binding, at saturation, of [^125 I]DOI to the membranes of Cos-7 cells expressing the 5HT2C receptor.
The cDNA fragment isolated in Example 1 was inserted into an eukaryotic expression vector, which was used to transfect Cos-7 cells. The membranes of the transfected cells obtained were then prepared and tested for their capacity to bind certain labelled serotoninergic ligands.
The cDNA encoding the 5HT2C receptor was isolated in the form of a 1372 pb XbaI-EcoRI fragment and then inserted at the corresponding sites of the vector p513. The vector p513 is derived from the vector pSG5 [Green et al., Nucl. Acids Res. 16 (1988) 369] by addition of a multiple cloning site. The recombinant vector thus obtained, designated p513NP75, was then used (10 μg per 10 cm dish) to transfect the Cos-7 cells in the presence of calcium phosphate.
48 Hours after transfection, the recombinant cells are harvested and the membranes are prepared according to the technique described by Amlaiky and Caron [J. Biol. Chem. 260 (1985) 1983].
Saturation binding and competition experiments were then carried out on these membranes in the presence of [^125 I]DOI (2200 Ci/mmol; New England Nuclear) and various test compounds.
(§1) The [^125 I]DOI (dimethoxyphenyl isopropylamine) was first used alone, in order to detect the expression of the gene encoding the receptors of the invention in the membranes of the recombinant cells. For this purpose, 100 μl of membrane suspension ([…]) of proteins) were incubated for 30 minutes at 30° C. in the presence of the radioactive ligand (50 μl) and 50 μl of 50 mM Tris-HCl buffer (pH 7.4), 150 mM NaCl, 10 mm MgCl2, final volume: 200 μl. The reaction is then stopped by addition of an isoosmotic ice-cold solution, then by filtration on Whatman GF/B filters, followed by 4 rinses in 5 ml of the above ice-cold buffer. The filters are then dried and the radioactivity is measured by counting (γ counter). Non-specific binding, determined in the presence of 10 μM of cold DOI, represented about 30% of the total binding.

The test system of assay [2] is membranes of the control cells (transfected with plasmid pSG5). The assay can be described thus: [^125 I]DOI binding to membranes of control cells (transfected with plasmid pSG5). As to the method: as §1
These cells therefore indeed express a functional serotonin receptor.

Assay [3] has as its system translation of the intracellular signal. The assay can be described thus: translation of the intracellular signal by the truncated receptor. Type of assay: cell-based, mouse. The following applies: truncated protein. The source says: The physiological role of this form of the receptor remains unknown, but it seems likely that it serves to protect certain sensitive targets, such as the vascular endothelium, from harmful stimulations by locally "diluting" the effect of the ligand, in this case serotonin.

[4] abbreviates: [^125 I]DOI displacement, Cos-7 membranes, whole receptor, at least three experiments in triplicate, read-out: pKD, binding to the COS N cells (converted).
Where [5] appears, read: [^125 I]DOI displacement, COS membranes, truncated receptor, at least three experiments in triplicate, read-out: pKD, binding to the COS T (converted).
Where [6] appears, read: Table 1 comparison column, source of values not stated.

Read-outs that look alike come from different tables or passages of the source.

T3 sequence (Q02152 whole entry S167T/A227V/S449C): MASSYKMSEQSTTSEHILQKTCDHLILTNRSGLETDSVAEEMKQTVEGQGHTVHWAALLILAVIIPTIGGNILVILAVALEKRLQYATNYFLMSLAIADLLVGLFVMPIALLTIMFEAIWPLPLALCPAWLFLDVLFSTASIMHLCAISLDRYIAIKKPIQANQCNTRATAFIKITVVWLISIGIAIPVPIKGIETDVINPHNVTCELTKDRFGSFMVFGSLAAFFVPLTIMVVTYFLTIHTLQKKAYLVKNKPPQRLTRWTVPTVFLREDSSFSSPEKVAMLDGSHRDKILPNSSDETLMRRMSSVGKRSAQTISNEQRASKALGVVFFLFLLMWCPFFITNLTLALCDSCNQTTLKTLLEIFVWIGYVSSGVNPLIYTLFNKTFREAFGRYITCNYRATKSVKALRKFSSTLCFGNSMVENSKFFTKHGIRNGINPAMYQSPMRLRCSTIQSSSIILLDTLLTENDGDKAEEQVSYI
Sequence of whole (N) 5HT2C receptor (Q02152 whole entry S167T/A227V/S449C, the tested form may be a part): as the sequence (Q02152 whole entry S167T/A227V/S449C) above
Sequence of 5-HT2 (P28223 whole entry, species assumed): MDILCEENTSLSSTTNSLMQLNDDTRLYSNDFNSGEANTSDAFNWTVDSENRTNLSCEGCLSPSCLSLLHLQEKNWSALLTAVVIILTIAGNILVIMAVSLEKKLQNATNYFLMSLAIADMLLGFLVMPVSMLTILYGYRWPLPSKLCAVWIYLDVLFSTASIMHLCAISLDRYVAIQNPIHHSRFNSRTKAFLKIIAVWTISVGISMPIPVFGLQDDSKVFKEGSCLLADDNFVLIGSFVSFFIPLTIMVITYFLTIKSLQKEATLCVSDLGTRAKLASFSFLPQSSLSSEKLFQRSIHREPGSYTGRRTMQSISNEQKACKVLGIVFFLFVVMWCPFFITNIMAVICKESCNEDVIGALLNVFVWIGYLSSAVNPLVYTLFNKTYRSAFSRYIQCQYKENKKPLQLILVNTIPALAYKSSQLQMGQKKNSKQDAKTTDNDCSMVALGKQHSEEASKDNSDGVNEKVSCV

As for `Cc1nc2n(c(=O)c1CCN1CCC(C(=O)c3ccc(F)cc3)CC1)CCS2` [Setoperone], the Kd at whole (N) 5HT2C receptor (setting [4]) is 24.5 nM; in assay [1] (setting [5]) it was more than 100000 nM; at 5-HT2, 2.51 nM; on 5-HT1C (setting [6]), 50.1 nM. Moreover, at whole (N) 5HT2C receptor (whole receptor), the “order of efficacy of displacement” value is “ritanserin>N-acetyl 5-HT>methysergide>setoperone=cyproheptadine>spiperone>ketanserin>tryptamine>5-HT >8-OH-DPAT”.

Consider `Cc1[nH]c2ccc(O)cc2c1CCN` [2-Me-5-HT], for which the Kd on whole (N) 5HT2C receptor was 6610 nM; in assay [1] (setting [5]), more than 100000 nM; on 5-HT2 (setting [6]), 6310 nM; on 5-HT1C, 1580 nM.

Turning to `Cc1nc2sccn2c(=O)c1CCN1CCC(=C(c2ccc(F)cc2)c2ccc(F)cc2)CC1` [Ritanserin], the “order of efficacy of displacement” value on whole (N) 5HT2C receptor (whole receptor) was “ritanserin>N-acetyl 5-HT>methysergide>setoperone=cyproheptadine>spiperone>ketanserin>tryptamine>5-HT >8-OH-DPAT”. The molecule further gave a Kd at 5-HT1C of 2.51 nM.

With `O=C(c1ccc(F)cc1)C1CCN(CCn2c(=O)[nH]c3ccccc3c2=O)CC1` [Ketanserin], the Kd was 204 nM on whole (N) 5HT2C receptor (setting [4]) and more than 100000 nM in assay [1]. Further, the “order of efficacy of displacement” value at whole (N) 5HT2C receptor (whole receptor) was “ritanserin>N-acetyl 5-HT>methysergide>setoperone=cyproheptadine>spiperone>ketanserin>tryptamine>5-HT >8-OH-DPAT”. Besides, the “increased sensitivity to serotonin of the contraction of the coronary arteries” value with coronary arteries is listed as “can be reduced by ketanserin”.

For `CN1CCC(=C2c3ccccc3C=Cc3ccccc32)CC1` [Cyproheptadine], the Kd on 5-HT1C (setting [6]) is 12.6 nM.

`CC(=O)NCCc1c[nH]c2ccc(O)cc12` [N-Acetyl-5-HT]: the Kd on whole (N) 5HT2C receptor was 7.08 nM; in assay [1] (setting [5]), 200 nM; on 5-HT2, 3160 nM; at 5-HT1C, 794 nM. In addition, the “order of efficacy of displacement” value at whole (N) 5HT2C receptor (whole receptor) was “ritanserin>N-acetyl 5-HT>methysergide>setoperone=cyproheptadine>spiperone>ketanserin>tryptamine>5-HT >8-OH-DPAT”.

Consider `Cn1cc(CCN)c2cc(O)ccc21` [1-ME-5-HT], for which the Kd on whole (N) 5HT2C receptor is 2510 nM; in assay [1] (setting [5]), 60300 nM; on 5-HT2 (setting [6]) it was 501 nM; at 5-HT1C it was 3.98 nM.

Consider `CC[C@@H](CO)NC(=O)[C@@H]1C=C2c3cccc4c3c(cn4C)C[C@H]2N(C)C1` [Methysergide], for which the Kd is 12.6 nM at whole (N) 5HT2C receptor and 2.51 nM on 5-HT1C. Moreover, the “order of efficacy of displacement” value on whole (N) 5HT2C receptor (whole receptor) was “ritanserin>N-acetyl 5-HT>methysergide>setoperone=cyproheptadine>spiperone>ketanserin>tryptamine>5-HT >8-OH-DPAT”.

In the case of `c1ccc2nc(N3CCNCC3)ccc2c1` [Quipazine], the Kd at whole (N) 5HT2C receptor (setting [4]) is 6610 nM; in assay [1] (setting [5]), 14100 nM; on 5-HT2, 631 nM; at 5-HT1C, 200 nM. For the same molecule, the “competition” value on whole (N) 5HT2C receptor (whole receptor) is recorded as “absence of competition”.

With `NCCc1c[nH]cn1` [Histamine], the Kd (on whole (N) 5HT2C receptor (setting [4]); in assay [1] (setting [5]); at 5-HT2; at 5-HT1C (setting [6])) was more than 100000 nM in each case.

As to `CN1[C@@H]2CC[C@H]1C[C@@H](OC(=O)c1cc(Cl)cc(Cl)c1)C2` [MDL 72222], the Kd on whole (N) 5HT2C receptor (setting [4]) was 24000 nM; in assay [1] (setting [5]), more than 100000 nM; at 5-HT2, 200 nM; at 5-HT1C (setting [6]) it was more than 10000 nM. The “competition” value at whole (N) 5HT2C receptor (whole receptor) was “absence of competition”.

For the molecule `CCCN(CCC)C1CCc2cccc(O)c2C1` (stereo not shown) [8-OH-DPAT], the Kd at whole (N) 5HT2C receptor is 6460 nM; in assay [1] (setting [5]), more than 100000 nM; on 5-HT2, 10000 nM. For the same molecule, at whole (N) 5HT2C receptor (whole receptor), the “order of efficacy of displacement” value is “ritanserin>N-acetyl 5-HT>methysergide>setoperone=cyproheptadine>spiperone>ketanserin>tryptamine>5-HT >8-OH-DPAT”.

In the case of `CN(C)CCCN1c2ccccc2Sc2ccc(Cl)cc21` [Chlorpromazine], the Kd (on whole (N) 5HT2C receptor (setting [4]); in assay [1] (setting [5])) was more than 100000 nM throughout.

`COc1ccc2[nH]cc(CCN(C)C)c2c1` [NNdiMe-5-MeOT]: the Kd at whole (N) 5HT2C receptor was 7410 nM; in assay [1] (setting [5]), 45700 nM.

As for `CN1C2CCC1CC(OC(=O)c1c[nH]c3ccccc13)C2` (stereo not shown) [ICS 205-930], on whole (N) 5HT2C receptor (whole receptor), the “competition” value is “absence of competition”. Further, the Kd was more than 100000 nM in assay [1] (setting [5]) and 25100 nM on 5-HT1C.

`NCCc1c[nH]c2ccccc12` [Tryptamine]: the Kd was 200 nM on whole (N) 5HT2C receptor, 14500 nM in assay [1] (setting [5]) and 63.1 nM at 5-HT1C. For the same molecule, the “order of efficacy of displacement” value on whole (N) 5HT2C receptor (whole receptor) is “ritanserin>N-acetyl 5-HT>methysergide>setoperone=cyproheptadine>spiperone>ketanserin>tryptamine>5-HT >8-OH-DPAT”.

As for `COc1cc(CC(C)N)c(OC)cc1I` (stereo not shown) [DOI, dimethoxyphenyl isopropylamine], at 5HT2C receptor ([^125 I]DOI), the “specific binding to the membranes of the transfected cells” value is “binds specifically to the membranes of the transfected cells”. Moreover, at 5HT2C receptor ([^125 I]DOI saturation binding, 30 minutes at 30° C., pH 7.4, read-out: apparent KD), the Kd was 25.8 ± 0.54 nM. For the same molecule, the “affinity for the transfected cells” value at 5HT2C receptor ([^125 I]DOI saturation binding, FIG. 1) was “high and the binding is saturable”. For the same molecule, the “non-specific binding (of the total binding)” value on 5HT2C receptor (in the presence of 10 μM of cold DOI) was “about 30%”. Moreover, the “binding to membranes of the control cells” value in assay [2] is recorded as “not to the membranes of the control cells”.

Turning to `O=C(CCCN1CCC2(CC1)C(=O)NCN2c1ccccc1)c1ccc(F)cc1` [Spiperone], the Kd on whole (N) 5HT2C receptor (setting [4]) is 50.1 nM; in assay [1] (setting [5]), more than 100000 nM; at 5-HT1C (setting [6]), 1260 nM. Moreover, the “order of efficacy of displacement” value on whole (N) 5HT2C receptor (whole receptor) is listed as “ritanserin>N-acetyl 5-HT>methysergide>setoperone=cyproheptadine>spiperone>ketanserin>tryptamine>5-HT >8-OH-DPAT”.

B1: truncated protein: receptor having only the first three transmembrane domains, residues 1 to 177 SEQ ID No. 2 plus 14 C-terminal amino acids (protein)
chain: MASSYKMSEQSTTSEHILQKTCDHLILTNRSGLETDSVAEEMKQTVEGQGHTVHWAALLILAVIIPTIGGNILVILAVALEKRLQYATNYFLMSLAIADLLVGLFVMPIALLTIMFEAIWPLPLALCPAWLFLDVLFSTASIMHLCAISLDRYIAIKKPIQANQCNTRATAFIKITV
modifications: plus 14 C-terminal amino acids
For B1, the “translation of the intracellular signal” value in assay [3] is reported as “completely abolished”.
